Experimental data as given in the supplement of paper PMC8617591.

What was measured:
[1] = test system: Mycobacterium tuberculosis Erdman (autoluminescent); assay: total FIC50 (Loewe) at 50% inhibition, three-drug combination (log2); higher = more antagonistic
Method: (§1)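 DiaMOND equipotent three-drug combination dose responses (10 doses, 1.5- or 2-fold spacing, centred on IC90) against autoluminescent M. tuberculosis Erdman in 8 in vitro models. Read-out is OD600, or luminescence for the intracellular and dormancy models, normalised to untreated wells. Hill-fit Einf, AUC25 and GRinf are potency metrics; FIC50 and FIC90 are total Loewe fractional inhibitory concentrations as log2 (negative = synergy).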

[2] = test system: Mycobacterium tuberculosis Erdman (autoluminescent); assay: Einf, fitted maximum growth inhibition of three-drug combination (fraction); higher = stronger maximal inhibition
Method: as §1

[3] = test system: Mycobacterium tuberculosis Erdman (autoluminescent); assay: AUC25, normalised area under dose response up to IC25 (three-drug combination) (fraction (0-1)); higher = more potent at low dose
Method: as §1

[4] = test system: Mycobacterium tuberculosis Erdman (autoluminescent); assay: GRinf, maximum normalised growth rate inhibition (three-drug combination) (unitless (-1 to 1)); higher = less effect (negative = killing)
Method: as §1

[5] = test system: Mycobacterium tuberculosis Erdman (autoluminescent); assay: total FIC90 (Loewe) at 90% inhibition, three-drug combination (log2); higher = more antagonistic
Method: as §1

CC(C)/N=c1\cc2n(-c3ccc(Cl)cc3)c3ccccc3nc-2cc1Nc1ccc(Cl)cc1 [clofazimine] + O=[N+]([O-])c1cn2c(n1)OC[C@@H](OCc1ccc(OC(F)(F)F)cc1)C2 [pretomanid] + NC(=O)c1cnccn1 [pyrazinamide]
Details	AUC25, [3]	Einf, [2]	GRinf, [4]	total FIC50, [1]	total FIC90, [5]
in vitro model: acidic pH 5.7, time point: constant (~7 days, model-specific)	0.116	0.799	-0.189	-0.0503	–
in vitro model: acidic pH 5.7, time point: terminal (~4-5 doublings, model-specific)	0.0855	0.963	-0.286	-0.211	-0.383
in vitro model: intracellular J774, time point: constant = terminal	–	1	-0.589	–	0.069

Details	AUC25, [3]	Einf, [2]	GRinf, [4]	total FIC50, [1]	total FIC90, [5]
in vitro model: butyrate, time point: constant (~7 days, model-specific)	0.117	0.927	-0.101	-0.205	1.93
in vitro model: butyrate, time point: terminal (~4-5 doublings, model-specific)	0.0918	0.967	-0.0731	-0.348	0.119
in vitro model: cholesterol 0.05 mM, time point: constant (~7 days, model-specific)	0.136	0.671	-0.153	–	–
in vitro model: cholesterol 0.05 mM, time point: terminal (~4-5 doublings, model-specific)	0.108	0.917	-0.206	1.04	–
in vitro model: cholesterol-high 0.2 mM, time point: constant (~7 days, model-specific)	0.0983	0.866	-0.131	0.247	–
in vitro model: cholesterol-high 0.2 mM, time point: terminal (~4-5 doublings, model-specific)	0.0869	0.997	-0.572	0.565	0.223
in vitro model: dormancy (butyrate + nitrate, low O2), time point: constant (~7 days, model-specific)	0.0942	0.933	0.139	-1.02	-2
in vitro model: dormancy (butyrate + nitrate, low O2), time point: terminal (~4-5 doublings, model-specific)	0.0486	0.989	-0.2	-0.553	-0.326
in vitro model: standard 7H9 glycerol, time point: constant = terminal	0.128	0.947	-0.335	-0.2	–
in vitro model: valerate, time point: constant (~7 days, model-specific)	0.125	0.874	-0.0963	0.359	–
in vitro model: valerate, time point: terminal (~4-5 doublings, model-specific)	0.0562	0.928	0.0185	0.629	1.17
